# Laboratory results taken from patent US20160208002A1, “Compositions Associated with and Methods of Managing Neutrophil Movement” (priority 2013, published 2016).
# What was measured:
# [1] = target: T1, CD209 (Homo sapiens, UniProt Q9NNX6); details: read-out: affinity for CD209, Kd; cited from earlier work
# T1 sequence (Q9NNX6 1-404): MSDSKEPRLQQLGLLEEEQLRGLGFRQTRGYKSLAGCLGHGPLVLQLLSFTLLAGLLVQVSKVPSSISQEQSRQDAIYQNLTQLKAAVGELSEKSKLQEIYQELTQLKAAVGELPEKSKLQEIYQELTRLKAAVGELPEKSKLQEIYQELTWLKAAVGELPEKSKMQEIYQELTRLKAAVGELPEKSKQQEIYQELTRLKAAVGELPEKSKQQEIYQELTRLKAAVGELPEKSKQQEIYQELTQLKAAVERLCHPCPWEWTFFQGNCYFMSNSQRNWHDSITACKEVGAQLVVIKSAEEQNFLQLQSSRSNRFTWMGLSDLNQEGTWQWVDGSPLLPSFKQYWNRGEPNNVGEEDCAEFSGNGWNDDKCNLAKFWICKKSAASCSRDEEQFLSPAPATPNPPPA
# [2] = tested on: C57/BL6 mice treated with bleomycin; assay: bleomycin-treated mice, cells in bronchoalveolar lavage (BAL); assay type: in vivo; details: 0.1 mg/kg intraperitoneal daily from day 1, day 3 after bleomycin, versus drug vehicle; FIG. 5A
# Procedure: The successful aspiration of bleomycin into the lungs was confirmed by listening for the crackling noise heard after the aspiration. 24 hours following bleomycin aspiration (day 1), mice were treated daily with intraperitoneal injections of 50 microliters of PBS containing 2 microliters of 1 mg/ml of compound 1 (ChemBridge Corporation, San Diego, Calif.) (0.1 mg/kg) dissolved in DMSO (SigmaAldrich, St. Louis, Mo.) or an equal volume of PBS containing 2 microliters of DMSO. All animals were used in accordance with rules published by the National Institutes of Health and with a protocol approved by the Texas A&M University Institutional Animal Care and Use Committee. Mice were weighed daily, and euthanized using CO2 following NIH guidelines at day 3 after bleomycin aspiration. There were no injections on day 3. […] The cells were resuspended in 500 microliters of 4% (w/v) BSA-PBS and counted with a hemacytometer. […] Primary antibodies were detected with biotinylated mouse anti-rat antibody (Jackson ImmunoResearch, West Grove, Pa.). […] Biotinylated antibodies were detected by a 1/500 dilution of ExtrAvidin alkaline phosphatase (Vector Laboratories, Burlingame, Calif.) in 4% BSA-PBS for 30 minutes. […] After washing, the biotinylated antibodies were detected by streptavidin-alkaline phosphatase kit (Vector Laboratories) following the manufacturer's protocol.
# [3] = tested on: human neutrophils; assay: human neutrophil spreading on fibronectin-coated plates after TNF-α; assay type: cell-based; details: 3 microgram/ml compound, FIG. 3
# [4] = tested on: C57/BL6 mice treated with bleomycin; assay: bleomycin-treated mice, cells in lung sections after BAL; assay type: in vivo; details: 0.1 mg/kg intraperitoneal daily, day 3 after bleomycin, FIG. 5B
# Procedure: The successful aspiration of bleomycin into the lungs was confirmed by listening for the crackling noise heard after the aspiration. 24 hours following bleomycin aspiration (day 1), mice were treated daily with intraperitoneal injections of 50 microliters of PBS containing 2 microliters of 1 mg/ml of compound 1 (ChemBridge Corporation, San Diego, Calif.) (0.1 mg/kg) dissolved in DMSO (SigmaAldrich, St. Louis, Mo.) or an equal volume of PBS containing 2 microliters of DMSO. All animals were used in accordance with rules published by the National Institutes of Health and with a protocol approved by the Texas A&M University Institutional Animal Care and Use Committee. Mice were weighed daily, and euthanized using CO2 following NIH guidelines at day 3 after bleomycin aspiration. There were no injections on day 3. […] The cells from the first BAL collection were collected by centrifugation at 500×g for 10 minutes. The BAL pellets were resuspended in the secondary and tertiary BAL fluid and the combined cells were collected by centrifugation at 500×g for 5 minutes. The cells were resuspended in 500 microliters of 4% (w/v) BSA-PBS and counted with a hemacytometer. 100 microliters of diluted cells were then aliquoted into cytospin funnels and were then spun onto glass slides (Superfrost plus white slides, VWR) at 400×g for 5 minutes using a cytospin centrifuge (Shandon, Cheshire, England). These cells were then air dried, and stained with anti-mouse Ly6G (Biolegend) to detect neutrophils, anti-mouse CD11b (Biolegend) to detect granulocytes, monocytes, and macrophages, anti-mouse CD11c (MBL International) to detect alveolar macrophages and dendritic cells, or anti-mouse CD45 (Biolegend) to detect leukocytes. For all slides, non-specific; binding was blocked by incubation in PBS containing 4% BSA for 60 minutes. Slides were then incubated with 5 microgram/ml primary antibodies in 4% BSA-PBS for 60 minutes. Primary antibodies were detected with biotinylated mouse anti-rat antibody (Jackson ImmunoResearch, West Grove, Pa.). All secondary antibodies were used at 2.5 microgram/ml in 4% BSA-PBS for 30 minutes. Biotinylated antibodies were detected by a 1/500 dilution of ExtrAvidin alkaline phosphatase (Vector Laboratories, Burlingame, Calif.) in 4% BSA-PBS for 30 minutes. Staining was developed with the Vector Red Alkaline Phosphatase Kit (Vector Laboratories) for 4 minutes following the manufacturer's protocol. […] After washing, the biotinylated antibodies were detected by streptavidin-alkaline phosphatase kit (Vector Laboratories) following the manufacturer's protocol.
structure (smiles),measurement,setting,value
CCC(=O)Nc1nc(C)c(-c2csc(Nc3ccc(N(C)C)cc3)n2)s1 [Compound 1],Kd,[1],1600 nM
same,number of CD11b-positive inflammatory macrophages in the BAL,[2],decrease
same,number of Ly6G-positive neutrophils in the BAL,[2],decrease
same,neutrophil spreading compared to the TNF-α control,[3],reduced neutrophil spreading
same,CD11c-positive macrophages in lung sections,[4]; versus drug vehicle,significant increase
same,CD206-positive cells in lung sections,[4]; versus drug vehicle,significant increase
same,number of Ly6G-positive neutrophils in lung sections,[4]; versus drug vehicle,significant decrease
same,CD11b-positive inflammatory macrophages in lung sections,[4],no effect
